Experimental data taken from patent publication US7361675B2, “1,2,4-thiadiazole compounds and use thereof” (Sumitomo Chemical Company Limited, priority 2002, dated 2008).

Experiments:
[1] = test system: western flower thrips (Frankliniella occidentalis); assay: Test Example 2: western flower thrips damage on treated cucumber leaf; assay type: in vivo; details: 500 ppm, 20 ml/cup on cucumber, cut first foliage leaf, 30 larvae, after seven days
Method: A preparation prepared from each of the compound (1) of the present invention and a comparative compound (A) according to Formulation Example 5 was diluted with water so that the concentration of the compound of the present invention became 500 ppm to obtain a test scattering solution. On the other hand, soil was filled into polyethylene cups, cucumber was planted in each cup, and grown until its first foliage leaves developed. The aforementioned test scattering solution was scattered on the cucumber at a ratio of 20 ml/cup, and the scattered solution on the surface of the leaf was dried. The first foliage leaf was cut off, placed on a filter (diameter 70 mm) impregnated with water in a polyethylene cup (diameter 110 mm), 30 larvae of western flower thrips (Frankliniella occidentalis) were released thereon, and the polyethylene cup was closed with a lid. After seven days, a damage degree of the cucumber leaf by western flower thrips (Frankliniella occidentalis) was examined.

[2] = test system: silverleaf whitefly (Bemisia argentifolii); assay: Test Example 3: silverleaf whitefly on cabbage (foliar scattering); assay type: in vivo; details: 168 h, 20 ml/cup on cabbage 8 days after egg laying, seven days after scattering, read-out: insecticidal rate
Method: A preparation prepared from each of the compounds (1), (2), (5), (6), (8), (9), (16), (77) and (78) of the present invention and the comparative compound (A) according to Formulation Example 5 was diluted with water so that the concentration of the compound of the present invention became 500 ppm to obtain a test scattering solution.
On the other hand, soil was filled in polyethylene cups, cabbage was planted in each cup, and grown until its first foliage leaves developed, and leaves other than a first foliage leaves were removed. About 200 imagoes of silverleaf whitefly (Bemisia argentifolii) were released on this cabbage for about 24 hours, and had them lay eggs on the cabbage first foliage leaf.
The thus obtained cabbage on which about 80 to 100 eggs of silverleaf whitefly (Bemisia argentifolii) were laid was allowed to stand in a greenhouse for 8 days, and the aforementioned test scattering solution was scattered at a ratio of 20 ml/cup. Seven days after scattering, the number of alive insects was examined, and an insecticidal rate was calculated.

Row | Structure (SMILES) | damage area rate by western flower thrips in the treated leaf [1] | pest or weed control at 500 ppm [2] | melting point
1 | C#CCOc1nnc(-c2ccccc2)s1 [comparative compound (A), reference compound] | ≥ 20% | ≤ 30% | 
2 | C#CCOc1nsc(-c2ccccc2)n1 [compound (1), 5-phenyl-3-propargyloxy-1,2,4-thiadiazole] | ≤ 5% | ≥ 90% | 66.9 °C
3 | CC#CCOc1nsc(-c2ccccc2)n1 [compound (2), 5-phenyl-3-(2-butynyloxy)-1,2,4-thiadiazole] |  | ≥ 90% | 70.3 °C
4 | CC#CCOc1nsc(-c2ccccc2F)n1 [compound (5), 5-(2-fluorophenyl)-3-(2-butynyloxy)-1,2,4-thiadiazole] |  | ≥ 90% | 
5 | CC#CCOc1nsc(-c2cccc(F)c2)n1 [compound (6), 5-(3-fluorophenyl)-3-(2-butynyloxy)-1,2,4-thiadiazole] |  | ≥ 90% | 68.7 °C
6 | CC#CCOc1nsc(-c2ccccc2Cl)n1 [compound (8), 5-(2-chlorophenyl)-3-(2-butynyloxy)-1,2,4-thiadiazole] |  | ≥ 90% | 
7 | CC#CCOc1nsc(-c2cccc(Cl)c2)n1 [compound (9), 5-(3-chlorophenyl)-3-(2-butynyloxy)-1,2,4-thiadiazole] |  | ≥ 90% | 
8 | CC#CCOc1nsc(-c2cccc(F)c2F)n1 [compound (16), 5-(2,3-difluorophenyl)-3-(2-butynyloxy)-1,2,4-thiadiazole] |  | ≥ 90% | 
9 | CCC#CCOc1nsc(-c2ccccc2Cl)n1 [compound (77), 5-(2-chlorophenyl)-3-(2-pentynyloxy)-1,2,4-thiadiazole] |  | ≥ 90% | 
10 | CCC#CCOc1nsc(-c2cccc(Cl)c2)n1 [compound (78), 5-(3-chlorophenyl)-3-(2-pentynyloxy)-1,2,4-thiadiazole] |  | ≥ 90% | 
